Reference: PubChem BioAssay AID651630 (Sanford-Burnham Center for Chemical Genomics, 2012)
Activity calls are given as the source filed them.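 The calls were made as follows: active = lipid-stain IC50 at or below a set limit, with nuclear-stain toxicity IC50 at least five times higher; inactive = the rest.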

Legend:
DAPI = test: triacylglycerol accumulation inhibitor potency, dose response, cell-based, panel, Nile Red and DAPI fluorescence, H9c2 (AID 651630); details: H9c2 cells, DAPI nuclear fluorescence (cytotoxicity counter-readout), oleic acid;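 also: cells exposed to compound overnight before fixation and staining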
TAG = test: as above; details: H9c2 cells, Nile Red TAG fluorescence, oleic acid

| SMILES | IC50 (TAG; mean of runs) | IC50 (TAG; run 1) | IC50 (TAG; run 2) | IC50 cytotoxicity (DAPI nuclear signal decrease) (DAPI; mean of runs) | IC50 cytotoxicity (DAPI nuclear signal decrease) (DAPI; run 1) | IC50 cytotoxicity (DAPI nuclear signal decrease) (DAPI; run 2) |
| --- | --- | --- | --- | --- | --- | --- |
| O=P(O)(O)CN1CCNCCN(CP(=O)(O)O)CCNCC1 | – | 24.7 µM | > 25 µM | > 25 µM (inactive) | > 25 µM | > 25 µM |
| CCC[C@@H](CN[C@@H](CNC)[C@H](C)CC)NCC1CCC(C(C)(C)C)CC1 (stereo not given in full) | > 25 µM (inactive) | > 25 µM | > 25 µM | – | > 25 µM | 24 µM |
| O=C(Nc1cccc(-c2csc(Nc3ccc(Cl)cc3)n2)c1)c1cc([N+](=O)[O-])cc(C(F)(F)F)c1 | 13.9 µM | 13.4 µM | 14.4 µM | > 25 µM (inactive) | > 25 µM | > 25 µM |
| O=C(Cc1coc2ccc3ccccc3c12)Nc1nccs1 | > 25 µM (inactive) | > 25 µM | > 25 µM | > 25 µM (inactive) | > 25 µM | > 25 µM |
| COc1cc2ccccc2cc1C(=O)N/N=C/c1cccs1 | > 25 µM (inactive) | > 25 µM | > 25 µM | > 25 µM (inactive) | > 25 µM | > 25 µM |
| CCCCCc1cc(=O)oc2c(C(CCN(CC)CC)c3ccc(N(C)C)cc3)c(OC)cc(OC)c12 (stereo not given) | – | > 25 µM | 17.5 µM | > 25 µM (inactive) | > 25 µM | > 25 µM |

Further lines, with some results ahead:

| IC50 (TAG; mean of runs) | IC50 (TAG; run 1) | IC50 (TAG; run 2) | SMILES | IC50 cytotoxicity (DAPI nuclear signal decrease) (DAPI; mean of runs) | IC50 cytotoxicity (DAPI nuclear signal decrease) (DAPI; run 1) | IC50 cytotoxicity (DAPI nuclear signal decrease) (DAPI; run 2) |
| --- | --- | --- | --- | --- | --- | --- |
| 17.7 µM (inactive) | 17.1 µM | 18.2 µM | CC(C)(C)NC(=O)C[C@H]1C[C@H](C(=O)N2CCCCC2)[C@@]2(CCc3ccccc3)c3[nH]c4ccc(Cl)cc4c3CCN2C1=O | > 25 µM (inactive) | > 25 µM | > 25 µM |
| > 25 µM (inactive) | > 25 µM | > 25 µM | CC1CCN(c2cc(N3CCC(C)CC3)c([N+](=O)[O-])cc2/C=C(\C#N)c2nn(-c3ccccc3)c(N)c2C#N)CC1 | > 25 µM (inactive) | > 25 µM | > 25 µM |
| 9.94 µM | 10.5 µM | 9.42 µM | CC(C)=CCC/C(C)=C/CNC(=O)C[C@H]1C[C@H](C(=O)N2CCCCC2)[C@@]2(CCc3ccccc3)c3[nH]c4cc(-c5ccco5)ccc4c3CCN2C1=O | > 25 µM (inactive) | > 25 µM | > 25 µM |
| > 25 µM (inactive) | > 25 µM | > 25 µM | CCCc1cc(C(=O)N/N=C/c2ccc(CC)s2)c2ccccc2n1 | > 25 µM (inactive) | > 25 µM | > 25 µM |
| > 25 µM (inactive) | > 25 µM | > 25 µM | COc1cc(C(=O)N2CCN(c3cc(Cl)ccc3Cl)CC2)cc(OC)c1OC | > 25 µM (inactive) | > 25 µM | > 25 µM |
| 14 µM | 10.5 µM | 17.6 µM | Cc1ccc(NC(=O)c2cc([N+](=O)[O-])ccc2NCc2cccnc2)cc1Cl | > 25 µM (inactive) | > 25 µM | > 25 µM |
| 22.7 µM (inactive) | 20.4 µM | 25 µM | CCOC(=O)c1[nH]c2ccc(OCC)cc2c1NC(=O)CN1CCN(c2ccccc2)CC1 | > 25 µM (inactive) | > 25 µM | > 25 µM |
